# From US20220242851A1, “CRYSTAL FORM AND SALT OF QUINAZOLINE COMPOUND AND PREPARATION METHOD THEREOF” (SHENZHEN JINRUI FOUNDATION BIOTECH CO., LTD, priority 2019, published 2022)
# Experiments:
# CYP2C19 = molecular target: T1, CYP2C19 (Homo sapiens, UniProt P33261); assay: Inhibition of CYP enzyme activity in human liver microsome, CYP2C19; assay type: in vitro ADME
# T1 construct: in the assay of CYP enzyme activity in human liver microsome; from tissue; host or cells: human liver microsome
# Excerpt: The results of the compound disclosed herein and the reference compound Poziotinib in the assay of CYP enzyme activity in human liver microsome were shown in the following table (Table 17).
# Pharmacokinetics in mice = assay type: in vivo, mouse
# Procedure: Purpose of the assay: this assay aimed to investigate in vivo plasma pharmacokinetics of the example compound disclosed herein and the reference compound in female BALB/c mice after the single intravenous injection and intragastric administration thereof.
# Animals of the assay: female BALB/c nude mice, 7-9 weeks old, weighted 17-23 grams; supplier: shanghai sippr bk laboratory animals Ltd.
# Sample collection: at each time point, a 0.03 mL blood sample was collected from the saphenous vein of the assay animal by puncture, and the actual blood collection time was recorded. All blood samples were added into commercial EDTA-K2 anticoagulation tubes with a specification of 1.5 mL (the supplier was Jiangsu KANGJIAN Medical Apparatus Co., Ltd.). Within half an hour after the blood sample was collected, the blood sample was centrifuged at 3000 g at 4° C. for 10 minutes, and the supernatant plasma was drawn, quickly placed in dry ice, and stored in a refrigerator at −80° C. for LC-MS/MS analysis.
# Data analysis: Plasma concentrations were processed using a non-compartmental model of WinNonlin™Version6.3 (Pharsight, MountainView, Calif.) pharmacokinetic software, and pharmacokinetic parameters Cmax, Tmax, T1/2, and AUC0-last were calculated using a linear log trapezoid method.
# NCI-N87 cell = assay: Inhibition of cell proliferation, Cell-Titer-Glo, NCI-N87; assay type: cell-based, human; conditions: conclusion
# Excerpt: Purpose of the assay: the inhibitory activity of the assay compounds on cell proliferation was detected. Principle of the assay: the luciferase in a Cell-Titer-Glo reagent produces oxidized luciferin with luciferin, oxygen and ATP as reaction substrates, and releases energy in the form of light. Since the luciferase reaction requires ATP, the total amount of light generated by the reaction is proportional to the total amount of ATP that reflects cell viability. Cell line: NCI-N87 cell line (ATCC-CRL-5822), BT-474 cell line (ATCC-HTB-20), OE21 (ECACC-96062201) Cell culture medium: […] L-[…]×, Gibco#25030-081; penicillin-streptomycin Hyclone# SV30010) Cell Titer-Glo® cell viability assay kit with luminescence (Promega #G7573) 384-well cell culture plate (Greiner # 781090) Compound plate (LABCYTE # LP-0200) CO2 incubator (Thermo#371) Vi-cell cell counter (Beckman Coulter) According to the schematic diagram of the cell seed plate, cells were seeded in a 384- or 96-well plate at a density of 1000 cells per well and 25 μL per well, and 25 μL of PBS was added to the wells near edge of the place where no cells were seeded. (1) The stock solution of the compounds has a concentration of 10 mM, and the compounds were diluted with DMSO to an initial concentration of 4 mM. […] After 10 minutes, the plate was read on PerkinElmer Envision, and the […] reading time was set to 0.2 second.
# [1] = test system: subcutaneous xenograft tumor of human esophageal carcinoma OE21 cells; assay: In vivo pharmacodynamics, OE21 subcutaneous xenograft (Assay Example 5); set-up: species or system mouse
# Procedure: Purpose of the assay: in vivo efficacy of the assay compound on subcutaneous xenograft tumor of human esophageal carcinoma OE21 cells in a BALB/c nude mouse model was evaluated.
# Animals of the assay: female BALB/c nude mice, 6-8 weeks old, weighted 17-23 grams; supplier: shanghai sippr bk laboratory animals Ltd.
# Human esophageal carcinoma OE21 cells were cultured in monolayer in vitro. The culture conditions were RPMI-1640 medium plus 10% fetal bovine serum, 100 U/mL penicillin, 100 U/mL streptomycin and 2 mM glutamine, 37° C., 5% CO2. The passaging was performed by conventional digestion with trypsin-EDTA twice a week. When the cell saturation was 80%-90%, the cells were collected, counted and inoculated.
# 0.1 ml […] OE21 cells (PBS) were inoculated subcutaneously on the right back of each mouse. When the average tumor volume reached 112 mm^3, administration to each group was started.
# The assay compound was formulated into a 0.15 mg/mL to 0.3 mg/mL clear or suspension solution in the solvents of 10% NMP+10% ethylene glycol stearate+80% water.
# The assay index was to investigate whether tumor growth is inhibited, delayed or cured. Tumor diameter was measured twice a week with vernier caliper. The calculation formula of tumor volume was: V=0.5a×b^2, wherein a and b represent the long and short diameters of tumor, respectively.
# The antitumor efficacy of the compounds was evaluated by TGI (%) or relative tumor proliferation rate T/C (%). TGI (%) reflects the tumor growth inhibition rate. TGI (%) was calculated as follows: TGI (%)=[(1−average tumor volume at the end of administration for a certain treatment group−average tumor volume at the beginning of administration for this treatment group))/(average tumor volume at the end of treatment for a vehicle control group−average tumor volume at the beginning of administration for this vehicle control group)]×100%.
# Relative tumor proliferation rate T/C (%): the calculation formula was as follows: T/C (%)=average tumor volume at the end of administration for a certain treatment group/average tumor volume at the end of treatment for the vehicle control group×100%.
# Statistical analysis included the mean and standard error of mean (SEM) of tumor volume at each time point in each group. One-way ANOVA was used for comparison among three or more groups. […] SPSS 17.0 was used for all data analysis. p<0.05 was considered a significant difference.
# T1 sequence (P33261 whole entry): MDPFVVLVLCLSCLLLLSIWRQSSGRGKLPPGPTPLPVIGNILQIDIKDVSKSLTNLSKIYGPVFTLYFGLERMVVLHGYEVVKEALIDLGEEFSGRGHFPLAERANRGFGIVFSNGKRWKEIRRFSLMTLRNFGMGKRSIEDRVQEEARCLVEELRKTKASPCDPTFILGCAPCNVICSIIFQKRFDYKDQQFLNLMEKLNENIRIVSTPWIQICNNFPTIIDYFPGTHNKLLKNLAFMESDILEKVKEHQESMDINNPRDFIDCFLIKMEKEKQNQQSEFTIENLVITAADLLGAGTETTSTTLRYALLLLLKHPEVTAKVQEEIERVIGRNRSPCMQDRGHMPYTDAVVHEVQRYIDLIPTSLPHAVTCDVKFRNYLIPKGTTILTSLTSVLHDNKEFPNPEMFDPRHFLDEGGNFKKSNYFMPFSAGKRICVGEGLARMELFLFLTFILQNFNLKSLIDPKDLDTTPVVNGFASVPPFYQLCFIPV
compound,measurement,setting,value
C=CC(=O)N1[C@@H]2CC[C@H]1C[C@H](Nc1cc3c(Nc4ccc(Cl)c(Cl)c4F)ncnc3cc1OC)C2 [Compound of formula (I)],inhibitory activity on CYP2C19 compared with Poziotinib (in words),CYP2C19,comparable to that of the reference compound Poziotinib
same,half-life compared with reference (in words),Pharmacokinetics in mice,longer half-life than that of the reference compound
same,oral plasma exposure compared with Poziotinib and control compound 2 (in words),Pharmacokinetics in mice,significantly better oral plasma exposure
same,inhibitory activity on the proliferation of NCI-N87 cells (in words),NCI-N87 cell,significant inhibitory activity
same,body weight and clinical signs (in words),[1]; 2/1.5 mg/kg,varying degrees of body weight loss and dandruff
same,tumor inhibitory effect (in words),"[1]; 2/1.5 mg/kg, compared with the vehicle control group",significant tumor inhibitory effect
same,Tumor volume (Day 21),"[1]; 2/1.5 mg/kg, Day 21, Mean + SEM",55 ± 13 mm3
same,effect on the body weight of mice (in words),"[1]; discussion, high-dose group",little effect on the body weight of mice
same,efficacy at low dose (in words),[1]; low dose of 0.5 mpk,comparable to that of the reference compound Poziotnib and the compound of formula (I) at a high dose of 1.5 mpk
same,"dark yellow urine, suggestion of toxicity (in words)","[1]; mouse, in vivo",without the toxicity suggestion of dark yellow urine
